Where two headings read alike, the source gives them in different places.
How the values were obtained:
[1] = target: WT EZH2 (Homo sapiens (Human), UniProt Q15910); experiment: WT EZH2 nucleosome assay (10X SAM, high SAM conditions); format: biochemical; conditions: 15 uM SAM, Ki app from competitive inhibition fit
Method: (§1) The genes for EZH2, EED, SUZ12, and RBBP4 proteins were cloned into pBacPAK9 vectors (Clontech). RBBP4 was FLAG tagged on the N-terminal end. The baculovirus expressions of these proteins were used to co-infect SF9 insect cells. Insect cell pellets were lysed in a buffer containing 25 mM Tris pH8.0, 300 mM NaCl, 0.5 mM TCEP, complete EDTA-free protease inhibitor (Roche), 0.1% NP-40. The supernatant from the lysate was incubated with FLAG® M2 antibody resin (Sigma). The resin was washed on the chromatography column and eluted with 0.2 mg/ml FLAG peptide. The elute was incubated with omnicleave nucleases (Epicentre Technologies) at 4° C. overnight, then concentrated and loaded onto a Superdex 200 (GE Healthcare) column. The Superdex 200 column was eluted with 25 mM Tris pH8.0, 150 mM NaCl, 0.5 mM TCEP. Fractions containing the PRC2 complex were pooled.
(§2) A. Compound preparation • 1.
(§3) B. Reagent preparation • 1. […] Dilute TCA to 20% in DI water
(§4) C. Enzyme reaction • 1. […] Some compounds were tested under high SAM conditions.
(§5) D. Data analysis • 1. IC50 values were determined by fitting the data to a 4-parameter IC50 equation using proprietary curve fitting software. • 2. For compounds tested under high SAM conditions, Ki^app values were obtained by fitting the dose response curve to a model for competitive inhibition using proprietary curve fitting software. Preparation of HeLa Oligonucleosomes: Reagents • Cell Pellet: 15 L HeLa S3 (Accelgen)+6 L HeLa S3 (in house) • Mnase (Worthington Biochemicals) Equipment • SW-28 Rotor • Dounce Homogenizer/B Pestle Buffers • Lysis: 20 mM Hepes pH 7.5, 0.25M Sucrose, 3 mM MgCl2, 0.5% Nonidet P-40, 0.5 mM TCEP, 1 Roche Protease Tablet • B: 20 mM Hepes pH7.5, 3 mM MgCl2, 0.5 mM EDTA, 0.5 mM TCEP, 1 Roche Protease Tablet • MSB: 20 mM Hepes pH7.5, 0.4 M NaCl, 1 mM EDTA, 5% v/v Glycerol, 0.5 mM TCEP, 0.2 mM PMSF • LSB: 20 mM Hepes pH7.5, 0.1M NaCl, 1 mM EDTA, 0.5 mM TCEP, 0.2 mM PMSF • NG: 20 mM Hepes pH7.5, 1 mM EDTA, 0.4 m NaCl, 0.2 mM PMSF, 0.5 mM TCEP • Storage: 20 mM Hepes pH7.5, 1 mM EDTA, 10% Glycerol, 0.2 mM PMSF, 0.5 mM TCEP Protocol

[2] = target: EZH2 Mutant Y641N (Homo sapiens (Human), UniProt Q15910, Y641N); experiment: EZH2 Mutant Y641N nucleosome assay; format: biochemical; conditions: PRC2 4-protein complex 6 nM, 1.5 μM SAM, HeLa oligonucleosomes
EZH2 Mutant Y641N, sequence (Q15910 whole entry Y641N, looked up): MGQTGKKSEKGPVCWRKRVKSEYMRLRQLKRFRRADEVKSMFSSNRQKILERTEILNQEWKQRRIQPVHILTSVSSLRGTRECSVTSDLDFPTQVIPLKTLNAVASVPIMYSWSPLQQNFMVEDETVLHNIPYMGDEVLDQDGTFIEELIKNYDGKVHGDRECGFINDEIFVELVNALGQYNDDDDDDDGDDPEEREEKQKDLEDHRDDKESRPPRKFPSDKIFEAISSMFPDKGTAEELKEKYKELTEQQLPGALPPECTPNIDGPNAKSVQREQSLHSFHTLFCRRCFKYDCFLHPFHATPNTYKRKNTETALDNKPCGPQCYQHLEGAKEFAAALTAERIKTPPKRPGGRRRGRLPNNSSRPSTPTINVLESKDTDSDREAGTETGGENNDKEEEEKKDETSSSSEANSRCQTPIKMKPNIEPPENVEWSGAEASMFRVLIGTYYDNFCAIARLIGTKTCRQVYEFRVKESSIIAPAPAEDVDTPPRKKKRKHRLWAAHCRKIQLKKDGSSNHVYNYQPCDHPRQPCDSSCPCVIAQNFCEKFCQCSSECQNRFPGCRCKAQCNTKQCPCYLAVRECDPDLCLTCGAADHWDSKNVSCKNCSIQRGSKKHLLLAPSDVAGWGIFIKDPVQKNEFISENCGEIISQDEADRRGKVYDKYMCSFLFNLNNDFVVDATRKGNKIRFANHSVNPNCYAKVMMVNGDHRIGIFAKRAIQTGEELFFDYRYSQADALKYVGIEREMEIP
EZH2 Mutant Y641N, sequence (O75530 whole entry partner, looked up): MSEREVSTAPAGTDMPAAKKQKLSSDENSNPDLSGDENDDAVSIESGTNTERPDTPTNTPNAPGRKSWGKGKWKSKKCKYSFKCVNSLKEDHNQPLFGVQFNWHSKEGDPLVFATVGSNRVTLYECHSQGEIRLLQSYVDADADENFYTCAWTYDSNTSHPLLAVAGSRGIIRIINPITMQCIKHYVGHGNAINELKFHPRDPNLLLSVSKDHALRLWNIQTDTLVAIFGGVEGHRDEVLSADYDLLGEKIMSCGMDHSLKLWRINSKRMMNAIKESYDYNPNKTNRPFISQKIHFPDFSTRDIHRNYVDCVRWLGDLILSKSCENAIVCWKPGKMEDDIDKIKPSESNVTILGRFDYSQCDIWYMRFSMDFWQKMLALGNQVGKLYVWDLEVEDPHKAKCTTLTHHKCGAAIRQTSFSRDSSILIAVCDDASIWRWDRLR
EZH2 Mutant Y641N, sequence (Q15022 whole entry partner, looked up): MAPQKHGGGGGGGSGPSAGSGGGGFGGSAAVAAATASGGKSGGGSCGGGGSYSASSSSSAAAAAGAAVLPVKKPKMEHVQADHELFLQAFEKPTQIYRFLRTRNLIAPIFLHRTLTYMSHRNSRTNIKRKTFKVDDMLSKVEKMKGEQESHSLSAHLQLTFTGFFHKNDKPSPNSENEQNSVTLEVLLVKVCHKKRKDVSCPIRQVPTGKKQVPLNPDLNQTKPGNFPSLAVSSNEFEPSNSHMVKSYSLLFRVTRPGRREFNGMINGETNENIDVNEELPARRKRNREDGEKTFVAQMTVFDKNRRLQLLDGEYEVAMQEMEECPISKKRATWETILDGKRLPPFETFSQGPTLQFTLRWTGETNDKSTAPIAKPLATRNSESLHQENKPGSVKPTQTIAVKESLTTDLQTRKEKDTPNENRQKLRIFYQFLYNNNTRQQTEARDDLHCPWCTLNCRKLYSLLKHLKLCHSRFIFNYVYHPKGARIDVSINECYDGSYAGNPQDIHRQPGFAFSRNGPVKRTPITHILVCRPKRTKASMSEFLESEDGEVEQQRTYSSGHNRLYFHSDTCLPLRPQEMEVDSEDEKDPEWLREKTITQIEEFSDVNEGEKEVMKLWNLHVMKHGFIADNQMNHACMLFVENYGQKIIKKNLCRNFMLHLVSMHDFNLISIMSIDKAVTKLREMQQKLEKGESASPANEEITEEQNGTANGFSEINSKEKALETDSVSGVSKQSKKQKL
EZH2 Mutant Y641N, sequence (Q09028 whole entry partner, looked up): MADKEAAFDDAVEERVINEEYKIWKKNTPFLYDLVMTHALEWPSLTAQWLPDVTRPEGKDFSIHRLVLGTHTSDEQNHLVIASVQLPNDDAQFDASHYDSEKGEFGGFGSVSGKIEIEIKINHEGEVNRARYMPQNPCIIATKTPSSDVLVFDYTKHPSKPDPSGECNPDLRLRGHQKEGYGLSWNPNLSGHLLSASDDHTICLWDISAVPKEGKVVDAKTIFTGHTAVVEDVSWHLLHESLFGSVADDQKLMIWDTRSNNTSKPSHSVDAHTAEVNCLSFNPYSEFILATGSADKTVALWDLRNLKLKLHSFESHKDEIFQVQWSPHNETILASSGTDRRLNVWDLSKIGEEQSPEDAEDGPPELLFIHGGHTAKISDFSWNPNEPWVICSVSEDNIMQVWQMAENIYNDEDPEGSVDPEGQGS
Method: as §1, §2, §3, §4, §5

[3] = read-out: WT EZH2 Nucleosome assay (10X SAM) Ki
[4] = read-out: EZH2 Mutant Y641N Nucleosome assay IC50
[5] = WT EZH2 Nucleosome assay (10X SAM) Ki (μM)
[6] = EZH2 Mutant Y641N Nucleosome assay IC50 (μM)

WT EZH2, sequence (Q15910 whole entry, looked up): as the sequence (Q15910 whole entry Y641N, looked up) above, with N641Y counted along it
WT EZH2, sequence (O75530 whole entry partner, looked up): as the sequence (O75530 whole entry partner, looked up) above
WT EZH2, sequence (Q15022 whole entry partner, looked up): as the sequence (Q15022 whole entry partner, looked up) above
WT EZH2, sequence (Q09028 whole entry partner, looked up): as the sequence (Q09028 whole entry partner, looked up) above

Structure (SMILES) | Ki [1, 3] [µM] | IC50 [2, 4] [µM] | Ki [1, 5] [µM] | IC50 [2, 6] [µM]
COC(c1cc(Cl)c2c(c1Cl)C(=O)N(Cc1c(C)cc(C)[nH]c1=O)CC2)C1CC[S+]([O-])CC1 (single isomer, unassigned) [Example 114] | 0.016 | 0.152 |  | 
COC(c1cc(Cl)c2c(c1Cl)C(=O)N(Cc1c(C)cc(C)[nH]c1=O)CC2)C1CC[S+]([O-])CC1 (single isomer, unassigned) [Example 115] | 0.0003 | 0.005 |  | 
COc1cc(C)[nH]c(=O)c1CN1CCc2c(Cl)cc(C(OC)C3CCN(C=O)CC3)c(Cl)c2C1=O (single isomer, unassigned) [Example 118] | 0.0001 | 0.003 |  | 
COc1cc(C)[nH]c(=O)c1CN1CCc2c(Cl)cc(C(OC)C3CCN(C=O)CC3)c(Cl)c2C1=O (single isomer, unassigned) [Example 119] | 0.015 | 0.1 |  | 
COC(c1cc(Cl)c2c(c1Cl)C(=O)N(Cc1c(C)cc(C)[nH]c1=O)CC2)C1(F)CCN(C)CC1 (single isomer, unassigned) [Example 120] | 0.002 | 0.014 |  | 
COC(c1cc(Cl)c2c(c1Cl)C(=O)N(Cc1c(C)cc(C)[nH]c1=O)CC2)C1(F)CCN(C)CC1 (single isomer, unassigned) [Example 121] | 0.029 | 0.255 |  | 
COc1cc(C)[nH]c(=O)c1CN1CCc2c(Cl)cc(C(OC)C3CCN(C(C)=O)CC3)c(Cl)c2C1=O (single isomer, unassigned) [Example 122] | 0.073 | 0.236 |  | 
COc1cc(C)[nH]c(=O)c1CN1CCc2c(Cl)cc(C(OC)C3CCN(C(C)=O)CC3)c(Cl)c2C1=O (single isomer, unassigned) [Example 123] | 0.0002 | 0.005 |  | 
COc1cc(C)[nH]c(=O)c1CN1CCc2c(Cl)cc(C(OC)C3CCOC3)c(Cl)c2C1=O (single isomer, unassigned) [Example 124] |  |  | 0.058 | 0.892
COc1cc(C)[nH]c(=O)c1CN1CCc2c(Cl)cc(C(OC)C3CCOC3)c(Cl)c2C1=O (single isomer, unassigned) [Example 125] |  |  | 0.0009 | 0.008
COc1cc(C)[nH]c(=O)c1CN1CCc2c(Cl)cc(C(OC)C3CCOC3)c(Cl)c2C1=O (single isomer, unassigned) [Example 126] |  |  | 0.056 | 0.165
COc1cc(C)[nH]c(=O)c1CN1CCc2c(Cl)cc(C(OC)C3CCOC3)c(Cl)c2C1=O (single isomer, unassigned) [Example 127] |  |  | 0.0002 | 0.0022
COC(c1cc(Cl)c2c(c1Cl)C(=O)N(Cc1c(C)cc(C)[nH]c1=O)CC2)C1CN(C(=O)CO)C1 (single isomer, unassigned) [Example 128] | 0.184 | 1.17 |  | 
COC(c1cc(Cl)c2c(c1Cl)C(=O)N(Cc1c(C)cc(C)[nH]c1=O)CC2)C1CN(C(=O)CO)C1 (single isomer, unassigned) [Example 129] | 0.0008 | 0.008 |  | 
COc1cc(C)[nH]c(=O)c1CN1CCc2c(C)cc(C(OC)C3CCS(=O)(=O)CC3)c(Cl)c2C1=O (single isomer, unassigned) [Example 130] | 0.22 | 1.99 |  | 
COC(c1cc(C)c2c(c1Cl)C(=O)N(Cc1c(C)cc(C)[nH]c1=O)CC2)C1CCS(=O)(=O)CC1 (single isomer, unassigned) [Example 131] | 0.0007 | 0.005 |  | 
COC(c1ccc2c(c1Cl)C(=O)N(Cc1c(C)cc(C)[nH]c1=O)CC2)C1CCOC1 (single isomer, unassigned) [Example 132] | 0.001 | 0.013 |  | 
COC(c1ccc2c(c1Cl)C(=O)N(Cc1c(C)cc(C)[nH]c1=O)CC2)C1CCOC1 (single isomer, unassigned) [Example 133] | 0.837 | 8.64 |  | 
COC(c1ccc2c(c1Cl)C(=O)N(Cc1c(C)cc(C)[nH]c1=O)CC2)C1CCOC1 (single isomer, unassigned) [Example 134] | 0.131 | 1.93 |  | 

Structure (SMILES) | Ki [1, 3] [µM] | IC50 [2, 4] [µM] | Ki [1, 5] [µM] | IC50 [2, 6] [µM]
COC(c1ccc2c(c1Cl)C(=O)N(Cc1c(C)cc(C)[nH]c1=O)CC2)C1CCOC1 (single isomer, unassigned) [Example 135] | 0.002 | 0.014 |  | 
COC(c1cc(Cl)c2c(c1Cl)C(=O)N(Cc1c(C)cc(C)[nH]c1=O)CC2)C1CCN(C)CC1 (single isomer, unassigned) [Example 136] |  |  | 0.0001 | 0.003
COC(c1cc(Cl)c2c(c1Cl)C(=O)N(Cc1c(C)cc(C)[nH]c1=O)CC2)C1CCN(C)CC1 (single isomer, unassigned) [Example 137] |  |  | 0.133 | 1.17
COC(c1cc(Br)c2c(c1Cl)C(=O)N(Cc1c(C)cc(C)[nH]c1=O)CC2)C1CN(C(=O)CO)C1 (single isomer, unassigned) [Example 138] | 0.046 | 0.249 |  | 
COC(c1cc(Br)c2c(c1Cl)C(=O)N(Cc1c(C)cc(C)[nH]c1=O)CC2)C1CN(C(=O)CO)C1 (single isomer, unassigned) [Example 139] | 0.0005 | 0.0085 |  | 
COC(c1cc(Cl)c2c(c1Cl)C(=O)N(Cc1c(C)cc(C)[nH]c1=O)CC2)[C@H](C)CO (single isomer, unassigned) [Example 140] | 0.103 | 1.17 |  | 
COC(c1cc(Cl)c2c(c1Cl)C(=O)N(Cc1c(C)cc(C)[nH]c1=O)CC2)[C@H](C)CO (single isomer, unassigned) [Example 141] | 0.002 | 0.016 |  | 
COC(c1cc(Cl)c2c(c1Cl)C(=O)N(Cc1c(C)cc(C)[nH]c1=O)CC2)[C@@H](C)CO (single isomer, unassigned) [Example 142] | 0.008 | 0.109 |  | 
COC(c1cc(Cl)c2c(c1Cl)C(=O)N(Cc1c(C)cc(C)[nH]c1=O)CC2)[C@@H](C)CO (single isomer, unassigned) [Example 143] | 0.276 | 1.77 |  | 
COc1cc(C)[nH]c(=O)c1CN1CCc2c(C)cc(C(OC)C3COC3)c(Cl)c2C1=O (single isomer, unassigned) [Example 144] | 0.0002 | 0.005 |  | 
COc1cc(C)[nH]c(=O)c1CN1CCc2c(C)cc(C(OC)C3COC3)c(Cl)c2C1=O (single isomer, unassigned) [Example 145] | 0.07 | 0.272 |  | 
COC(c1cc(Br)c2c(c1Cl)C(=O)N(Cc1c(C)cc(C)[nH]c1=O)CC2)C1CCN(C)CC1 (single isomer, unassigned) [Example 146] | 0.0001 | 0.0035 |  | 
COC(c1cc(Br)c2c(c1Cl)C(=O)N(Cc1c(C)cc(C)[nH]c1=O)CC2)C1CCN(C)CC1 (single isomer, unassigned) [Example 147] | 0.128 | 0.543 |  | 
COC(c1cc(Cl)c2c(c1Cl)C(=O)N(Cc1c(C)cc(C)[nH]c1=O)CC2)C1CCS(=O)(=O)C1 (single isomer, unassigned) [Example 148] | 0.056 | 0.439 |  | 
COC(c1cc(Cl)c2c(c1Cl)C(=O)N(Cc1c(C)cc(C)[nH]c1=O)CC2)C1CCS(=O)(=O)C1 (single isomer, unassigned) [Example 149] | 0.539 | 2.27 |  | 
COC(c1cc(Cl)c2c(c1Cl)C(=O)N(Cc1c(C)cc(C)[nH]c1=O)CC2)C1CCS(=O)(=O)C1 (single isomer, unassigned) [Example 150] | 0.0001 | 0.003 |  | 
COC(c1cc(Cl)c2c(c1Cl)C(=O)N(Cc1c(C)cc(C)[nH]c1=O)CC2)C1CCS(=O)(=O)C1 (single isomer, unassigned) [Example 151] | 0.0008 | 0.009 |  | 
COC(c1cc(C)c2c(c1Cl)C(=O)N(Cc1c(C)cc(C)[nH]c1=O)CC2)C1CCN(C2COC2)CC1 (single isomer, unassigned) [Example 154] | 0.0446 | 0.553 |  | 
COC(c1cc(C)c2c(c1Cl)C(=O)N(Cc1c(C)cc(C)[nH]c1=O)CC2)C1CCN(C2COC2)CC1 (single isomer, unassigned) [Example 155] | 0.0013 | 0.027 |  | 
